In ChEMBL document CHEMBL5465560, “Selectivity Literature for EUbOPEN Chemogenomic Library” (2024):
pIC50: −log10 of the molar value.

Legend:
[1] = target: T1, Protein arginine N-methyltransferase 9 (Homo sapiens) (UniProt Q6P2P2); assay: Selectivity interaction (Methyltransferase screen (radiometric assays, panel of 8 PRMTs, 21 protein lysine methyltransferases, 3 DNA methyltransferases, and one RNA methyltransferase)) EUB0000272b PRMT9
T1 sequence (whole entry): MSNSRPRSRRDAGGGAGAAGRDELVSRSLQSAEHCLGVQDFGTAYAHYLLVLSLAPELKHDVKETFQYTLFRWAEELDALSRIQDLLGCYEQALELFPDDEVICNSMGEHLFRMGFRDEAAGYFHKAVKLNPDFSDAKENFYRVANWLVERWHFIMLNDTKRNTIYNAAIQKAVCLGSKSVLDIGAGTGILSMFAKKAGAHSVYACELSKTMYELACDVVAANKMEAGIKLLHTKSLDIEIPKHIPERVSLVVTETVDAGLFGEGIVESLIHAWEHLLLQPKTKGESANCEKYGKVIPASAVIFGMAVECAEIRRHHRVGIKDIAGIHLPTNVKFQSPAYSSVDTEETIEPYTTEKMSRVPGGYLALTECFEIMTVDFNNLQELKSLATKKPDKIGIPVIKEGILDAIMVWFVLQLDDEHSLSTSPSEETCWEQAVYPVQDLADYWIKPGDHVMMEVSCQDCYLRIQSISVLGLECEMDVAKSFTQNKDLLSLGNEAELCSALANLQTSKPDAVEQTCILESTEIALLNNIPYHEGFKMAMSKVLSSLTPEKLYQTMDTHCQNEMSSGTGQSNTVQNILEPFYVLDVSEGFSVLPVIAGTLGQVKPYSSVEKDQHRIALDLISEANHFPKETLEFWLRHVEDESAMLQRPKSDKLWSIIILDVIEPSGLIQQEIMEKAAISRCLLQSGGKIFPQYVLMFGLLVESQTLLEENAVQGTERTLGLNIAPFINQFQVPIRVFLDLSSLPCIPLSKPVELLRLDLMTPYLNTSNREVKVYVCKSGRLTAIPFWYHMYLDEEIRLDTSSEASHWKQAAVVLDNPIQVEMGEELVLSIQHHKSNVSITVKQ

[2] = target: Tyrosine-protein kinase Fes/Fps (Homo sapiens) (UniProt P07332); assay: Selectivity interaction (ProQinase) EUB0000171b FES
Histamine H1 receptor = Histamine H1 receptor (Homo sapiens, UniProt P35367); assay: Selectivity interaction (GPCR panel (PDSP screen)) EUB0001079a HRH1; conditions: at 10 µM
Thromboxane A2 receptor = Thromboxane A2 receptor (Homo sapiens, UniProt P21731); assay: Selectivity interaction (Thromboxane A2 receptor binding assay, human recombinant) EUB0000877a TBXA2R
[3] = target: Casein kinase I isoform delta (Homo sapiens, UniProt P48730); assay: Selectivity interaction (Millipore kinase profiler) EUB0000124b CSNK1D; conditions: at 10 µM
[4] = target: Ribosomal protein S6 kinase alpha-5 (Homo sapiens) (UniProt O75582); assay: Selectivity interaction (Millipore kinase profiler) EUB0000124b RPS6KA5; conditions: at 10 µM
Misshapen-like kinase 1 = Misshapen-like kinase 1 (Homo sapiens, UniProt Q8N4C8); conditions: at 10 µM
[5] = target: Tyrosine-protein kinase CSK (Homo sapiens) (UniProt P41240); assay: (§1) Selectivity interaction (ActivX KiNativ screen (kinase selectivity in THP-1 cell lysates)) EUB0000639a CSK; type: subcellular; conditions: lysate
[6] = target: Tyrosine-protein kinase CSK (Homo sapiens) (UniProt P41240); assay: as §1; type: subcellular; conditions: lysate, at 5 µM
[7] = target: Mitogen-activated protein kinase kinase kinase 9 (Homo sapiens) (UniProt P80192); assay: Selectivity interaction (Kinase panel (Invitrogen)) EUB0000639a MAP3K9; conditions: at 200 nM
[8] = target: Phosphatidylinositol 4-phosphate 3-kinase C2 domain-containing subunit beta (Homo sapiens) (UniProt O00750); assay: Selectivity interaction (Kinase panel (Invitrogen)) EUB0000639a PIK3C2B; conditions: at 200 nM
[9] = target: Ribosomal protein S6 kinase alpha-2 (Homo sapiens) (UniProt Q15349); assay: Selectivity interaction (KinomeScan (DiscoverX)) EUB0000607a RPS6KA2; conditions: at 10 µM
[10] = target: T2, Mitogen-activated protein kinase 15 (Homo sapiens) (UniProt Q8TD08); assay: Selectivity interaction (KinomeScan (DiscoverX)) EUB0000045b MAPK15
T2 sequence (whole entry): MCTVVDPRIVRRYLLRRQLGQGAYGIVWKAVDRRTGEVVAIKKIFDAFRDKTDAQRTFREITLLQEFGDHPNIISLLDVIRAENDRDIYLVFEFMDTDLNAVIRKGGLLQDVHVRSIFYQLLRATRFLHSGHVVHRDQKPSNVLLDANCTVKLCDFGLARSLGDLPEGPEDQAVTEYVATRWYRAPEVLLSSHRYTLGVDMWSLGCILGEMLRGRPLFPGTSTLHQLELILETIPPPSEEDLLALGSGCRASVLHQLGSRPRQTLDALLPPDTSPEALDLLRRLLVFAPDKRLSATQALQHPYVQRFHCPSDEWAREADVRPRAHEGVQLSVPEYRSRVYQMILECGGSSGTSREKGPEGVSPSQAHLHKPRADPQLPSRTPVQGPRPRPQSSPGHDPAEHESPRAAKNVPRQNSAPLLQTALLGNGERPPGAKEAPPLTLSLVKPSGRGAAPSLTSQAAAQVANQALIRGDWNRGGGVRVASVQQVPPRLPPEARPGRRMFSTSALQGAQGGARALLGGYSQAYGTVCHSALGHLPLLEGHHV

[11] = target: Calcium/calmodulin-dependent protein kinase type II subunit delta (Homo sapiens) (UniProt Q13557); assay: Selectivity interaction (ActivX KiNativ screen (ex vivo kinase selectivity in human PBMCs)) EUB0001619a CAMK2D; type: cell-based; conditions: PBMC, at 1 µM
[12] = target: T3, cAMP-dependent protein kinase catalytic subunit PRKX (Homo sapiens) (UniProt P51817); assay: Selectivity interaction (KinomeScan (DiscoverX)) EUB0001619a PRKX; conditions: at 1 µM
T3 sequence (whole entry): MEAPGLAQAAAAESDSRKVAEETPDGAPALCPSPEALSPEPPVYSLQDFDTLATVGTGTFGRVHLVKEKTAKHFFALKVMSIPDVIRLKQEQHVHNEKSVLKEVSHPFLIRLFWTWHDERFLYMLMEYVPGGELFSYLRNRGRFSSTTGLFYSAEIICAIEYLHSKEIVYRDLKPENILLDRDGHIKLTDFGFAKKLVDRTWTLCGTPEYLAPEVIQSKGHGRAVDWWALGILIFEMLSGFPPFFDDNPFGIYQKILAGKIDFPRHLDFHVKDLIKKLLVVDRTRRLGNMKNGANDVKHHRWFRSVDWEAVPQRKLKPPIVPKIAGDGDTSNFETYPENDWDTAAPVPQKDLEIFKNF

Sequence of Tyrosine-protein kinase CSK (Homo sapiens) (P41240 2-450 limits assumed): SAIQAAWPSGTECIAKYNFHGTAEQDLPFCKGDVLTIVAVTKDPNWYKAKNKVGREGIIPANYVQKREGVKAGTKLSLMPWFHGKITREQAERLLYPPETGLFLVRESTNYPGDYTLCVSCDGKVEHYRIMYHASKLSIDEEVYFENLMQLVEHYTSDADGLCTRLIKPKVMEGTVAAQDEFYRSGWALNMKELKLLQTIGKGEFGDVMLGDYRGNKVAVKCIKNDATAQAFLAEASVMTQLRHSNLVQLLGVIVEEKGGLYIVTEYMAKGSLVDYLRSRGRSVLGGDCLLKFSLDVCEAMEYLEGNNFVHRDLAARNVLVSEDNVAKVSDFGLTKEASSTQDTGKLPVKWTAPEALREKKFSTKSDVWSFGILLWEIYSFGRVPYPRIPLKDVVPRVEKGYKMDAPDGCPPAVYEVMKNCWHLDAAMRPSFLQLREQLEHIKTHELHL
Sequence of Tyrosine-protein kinase Fes/Fps (Homo sapiens) (P07332 whole entry): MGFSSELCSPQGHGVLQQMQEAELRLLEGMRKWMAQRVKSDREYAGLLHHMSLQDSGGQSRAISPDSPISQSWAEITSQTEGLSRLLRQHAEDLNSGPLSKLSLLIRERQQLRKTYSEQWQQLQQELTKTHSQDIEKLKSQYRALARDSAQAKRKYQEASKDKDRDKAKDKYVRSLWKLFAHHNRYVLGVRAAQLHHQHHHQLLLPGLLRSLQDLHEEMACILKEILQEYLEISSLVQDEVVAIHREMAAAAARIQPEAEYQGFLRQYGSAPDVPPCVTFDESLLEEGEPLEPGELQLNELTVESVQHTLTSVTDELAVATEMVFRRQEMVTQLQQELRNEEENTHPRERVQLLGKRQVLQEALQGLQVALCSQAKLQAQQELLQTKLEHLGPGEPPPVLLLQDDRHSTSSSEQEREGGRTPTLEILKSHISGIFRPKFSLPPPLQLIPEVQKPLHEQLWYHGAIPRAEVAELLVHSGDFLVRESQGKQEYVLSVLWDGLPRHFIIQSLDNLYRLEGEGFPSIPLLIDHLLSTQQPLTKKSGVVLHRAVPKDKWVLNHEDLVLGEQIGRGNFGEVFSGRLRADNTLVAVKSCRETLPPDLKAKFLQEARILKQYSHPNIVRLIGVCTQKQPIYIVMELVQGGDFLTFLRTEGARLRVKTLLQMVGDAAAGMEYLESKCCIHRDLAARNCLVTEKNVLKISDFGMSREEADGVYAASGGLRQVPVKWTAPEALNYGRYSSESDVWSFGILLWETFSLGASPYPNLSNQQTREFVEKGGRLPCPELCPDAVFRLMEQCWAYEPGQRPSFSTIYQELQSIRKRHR
Sequence of Ribosomal protein S6 kinase alpha-2 (Homo sapiens) (Q15349 whole entry): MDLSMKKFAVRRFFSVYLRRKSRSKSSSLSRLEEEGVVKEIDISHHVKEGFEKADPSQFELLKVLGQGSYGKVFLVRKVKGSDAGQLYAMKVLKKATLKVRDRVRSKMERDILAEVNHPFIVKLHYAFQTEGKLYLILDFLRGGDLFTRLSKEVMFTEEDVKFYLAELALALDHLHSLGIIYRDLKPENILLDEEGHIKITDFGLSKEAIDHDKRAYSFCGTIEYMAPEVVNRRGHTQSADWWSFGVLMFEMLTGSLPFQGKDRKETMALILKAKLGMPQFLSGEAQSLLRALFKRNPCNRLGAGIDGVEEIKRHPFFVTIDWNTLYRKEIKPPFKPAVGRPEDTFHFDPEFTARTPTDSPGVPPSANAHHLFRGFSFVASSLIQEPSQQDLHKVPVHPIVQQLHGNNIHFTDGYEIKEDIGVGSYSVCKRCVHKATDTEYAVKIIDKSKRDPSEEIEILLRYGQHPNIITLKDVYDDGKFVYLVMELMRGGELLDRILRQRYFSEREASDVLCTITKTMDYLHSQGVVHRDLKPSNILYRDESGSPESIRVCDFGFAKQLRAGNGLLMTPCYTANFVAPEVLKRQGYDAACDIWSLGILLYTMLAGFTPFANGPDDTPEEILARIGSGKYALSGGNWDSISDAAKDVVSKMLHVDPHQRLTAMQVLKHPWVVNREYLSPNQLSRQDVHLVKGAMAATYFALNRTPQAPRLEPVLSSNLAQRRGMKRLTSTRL
Sequence of Histamine H1 receptor (P35367 whole entry): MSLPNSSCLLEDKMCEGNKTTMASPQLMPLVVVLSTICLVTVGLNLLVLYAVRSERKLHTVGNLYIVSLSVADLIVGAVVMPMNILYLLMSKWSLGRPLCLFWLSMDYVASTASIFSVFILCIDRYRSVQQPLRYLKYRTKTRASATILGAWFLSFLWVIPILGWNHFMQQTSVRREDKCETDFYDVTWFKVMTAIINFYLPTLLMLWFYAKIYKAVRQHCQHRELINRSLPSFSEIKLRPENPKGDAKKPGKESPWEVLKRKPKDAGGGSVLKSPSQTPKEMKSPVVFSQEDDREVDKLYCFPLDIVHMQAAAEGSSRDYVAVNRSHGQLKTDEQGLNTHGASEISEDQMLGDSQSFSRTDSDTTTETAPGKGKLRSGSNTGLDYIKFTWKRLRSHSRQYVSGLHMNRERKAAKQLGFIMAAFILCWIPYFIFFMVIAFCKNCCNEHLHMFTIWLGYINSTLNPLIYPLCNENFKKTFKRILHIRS
Sequence of Mitogen-activated protein kinase kinase kinase 9 (Homo sapiens) (P80192 whole entry, looked up, the tested form may be a part): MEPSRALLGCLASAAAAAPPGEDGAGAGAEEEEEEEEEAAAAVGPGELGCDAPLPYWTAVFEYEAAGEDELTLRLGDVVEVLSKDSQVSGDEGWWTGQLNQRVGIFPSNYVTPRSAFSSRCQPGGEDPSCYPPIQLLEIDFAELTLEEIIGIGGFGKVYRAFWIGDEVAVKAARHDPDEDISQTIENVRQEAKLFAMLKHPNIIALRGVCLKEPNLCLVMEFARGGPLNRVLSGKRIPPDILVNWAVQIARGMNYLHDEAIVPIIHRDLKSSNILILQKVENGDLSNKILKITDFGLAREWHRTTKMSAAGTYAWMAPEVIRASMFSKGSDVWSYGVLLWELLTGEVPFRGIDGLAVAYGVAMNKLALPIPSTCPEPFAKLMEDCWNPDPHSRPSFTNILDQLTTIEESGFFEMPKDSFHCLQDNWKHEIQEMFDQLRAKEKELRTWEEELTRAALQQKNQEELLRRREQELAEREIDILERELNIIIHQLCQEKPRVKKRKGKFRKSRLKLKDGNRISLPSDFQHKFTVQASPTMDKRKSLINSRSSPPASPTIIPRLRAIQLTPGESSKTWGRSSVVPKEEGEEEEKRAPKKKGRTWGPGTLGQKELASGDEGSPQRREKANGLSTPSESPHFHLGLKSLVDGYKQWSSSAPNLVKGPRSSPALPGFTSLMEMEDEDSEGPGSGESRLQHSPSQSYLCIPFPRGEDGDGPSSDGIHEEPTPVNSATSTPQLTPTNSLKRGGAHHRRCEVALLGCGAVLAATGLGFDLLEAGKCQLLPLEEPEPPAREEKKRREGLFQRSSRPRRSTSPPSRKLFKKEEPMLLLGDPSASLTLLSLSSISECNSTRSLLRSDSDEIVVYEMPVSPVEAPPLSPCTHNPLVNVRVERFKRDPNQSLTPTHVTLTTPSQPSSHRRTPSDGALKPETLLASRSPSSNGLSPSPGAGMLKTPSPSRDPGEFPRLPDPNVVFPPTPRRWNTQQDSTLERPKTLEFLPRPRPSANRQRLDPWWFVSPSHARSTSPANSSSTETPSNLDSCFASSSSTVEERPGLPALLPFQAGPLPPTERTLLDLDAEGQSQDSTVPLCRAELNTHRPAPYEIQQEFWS
Sequence of Misshapen-like kinase 1 (Q8N4C8 whole entry, looked up): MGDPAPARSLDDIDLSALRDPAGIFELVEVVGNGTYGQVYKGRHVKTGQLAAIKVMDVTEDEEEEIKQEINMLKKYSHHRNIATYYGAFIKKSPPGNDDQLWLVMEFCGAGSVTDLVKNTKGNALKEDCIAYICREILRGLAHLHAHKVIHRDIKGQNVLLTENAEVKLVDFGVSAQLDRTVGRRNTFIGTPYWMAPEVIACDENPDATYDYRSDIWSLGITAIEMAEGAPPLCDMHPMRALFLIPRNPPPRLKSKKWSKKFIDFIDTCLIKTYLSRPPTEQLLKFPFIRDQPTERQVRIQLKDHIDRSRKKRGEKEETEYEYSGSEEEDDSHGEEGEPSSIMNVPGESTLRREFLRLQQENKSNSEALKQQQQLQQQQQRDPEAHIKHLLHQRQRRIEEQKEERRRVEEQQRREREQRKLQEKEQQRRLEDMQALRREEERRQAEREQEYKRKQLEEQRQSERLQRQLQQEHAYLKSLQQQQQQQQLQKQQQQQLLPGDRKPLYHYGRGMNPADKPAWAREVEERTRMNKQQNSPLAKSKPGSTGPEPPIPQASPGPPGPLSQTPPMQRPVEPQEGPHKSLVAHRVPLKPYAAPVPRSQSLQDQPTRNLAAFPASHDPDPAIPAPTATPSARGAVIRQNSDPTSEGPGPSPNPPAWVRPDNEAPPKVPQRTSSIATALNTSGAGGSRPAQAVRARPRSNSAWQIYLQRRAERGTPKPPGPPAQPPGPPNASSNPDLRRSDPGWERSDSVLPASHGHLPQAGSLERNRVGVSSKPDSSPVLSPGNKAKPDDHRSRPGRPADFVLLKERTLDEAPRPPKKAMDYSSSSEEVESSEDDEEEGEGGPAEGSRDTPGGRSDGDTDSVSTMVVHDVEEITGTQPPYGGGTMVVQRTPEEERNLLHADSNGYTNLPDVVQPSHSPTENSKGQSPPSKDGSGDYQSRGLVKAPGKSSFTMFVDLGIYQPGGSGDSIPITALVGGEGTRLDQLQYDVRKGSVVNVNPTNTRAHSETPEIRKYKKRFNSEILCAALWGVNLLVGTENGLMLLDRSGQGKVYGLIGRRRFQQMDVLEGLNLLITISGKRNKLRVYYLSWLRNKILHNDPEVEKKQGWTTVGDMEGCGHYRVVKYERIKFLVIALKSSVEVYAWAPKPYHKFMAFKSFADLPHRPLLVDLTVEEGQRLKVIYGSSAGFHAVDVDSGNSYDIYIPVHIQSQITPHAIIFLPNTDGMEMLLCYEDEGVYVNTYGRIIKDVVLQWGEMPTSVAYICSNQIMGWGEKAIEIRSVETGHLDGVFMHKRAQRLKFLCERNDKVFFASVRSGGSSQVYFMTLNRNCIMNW

Structure (SMILES): Cc1cc(C)cc([C@H]2c3cc(C)ccc3NC(=O)CN2C(=O)c2ccc(Br)s2)c1
- % of activity ([1]; at 1 µM): 105%
- % of activity ([1]; at 10 µM): 105%

Structure (SMILES): C=CC(=O)Nc1cccc(C(=O)Nc2ccc(Nc3cc(-c4[nH]c(SC)nc4C)ccn3)cc2)c1
- % of control ([2]; at 1 µM): 88%
- % of control ([2]; at 5 µM): 91%

Structure (SMILES): Nc1cnc(N2CCc3cc(S(=O)(=O)Nc4c(F)cc(Cl)cc4F)cc(N4CCCC4=O)c32)nc1 [TP-020n]
- % of inhibition (Histamine H1 receptor): 8.19%

Structure (SMILES): CCC(=O)N1CC[C@H](Nc2ncnc3c2CN(c2cnc(OC)c(C(F)(F)F)c2)CC3)C1 [LENIOLISIB]
- pIC50 (Thromboxane A2 receptor): < 4.52

Structure (SMILES): CC(=O)Nc1cccc(-n2c(=O)n(C3CC3)c(=O)c3c(Nc4ccc(I)cc4F)n(C)c(=O)c(C)c32)c1
- % of control [3]: 105%
- % of control [4]: 111%

Structure (SMILES): Cc1cc([C@@H](C)Nc2ccccc2C(=O)O)c2nc(N3CCOCC3)cc(=O)n2c1 [AZD-6482]
- % of control (Misshapen-like kinase 1): 100%

Structure (SMILES): CC[C@@H]1[C@H](F)C(=O)N[C@@H]1COc1nccc2cc(C(N)=O)c(OC)cc12 [ZIMLOVISERTIB]
- % of inhibition ([5]; at 0.01 µM): 4.3%
- % of inhibition ([5]; at 0.04 µM): -0.3%
- % of inhibition ([5]; at 0.2 µM): -3.8%
- % of inhibition ([5]; at 1 µM): 10.3%
- % of inhibition ([5]; at 5 µM): -8.3%
- % of inhibition [6]: -2.6%
- % of inhibition [7]: 5.9%
- % of inhibition [8]: 7.24%

Structure (SMILES): CNC(=O)Nc1ccc(-c2nc(N3CC4CCC(C3)O4)c3cnn(C4CCC5(CC4)OCCO5)c3n2)cc1
- % of control [9]: 100%

Structure (SMILES): C=CC(=O)Nc1cc(-n2c(=O)ccc3cnc4ccc(-c5ccc(NS(C)(=O)=O)cc5)cc4c32)ccc1C
- % of control ([10]; at 1 µM): 100%
- % of control ([10]; at 10 µM): 100%

Structure (SMILES): N#Cc1cccc(-c2c[nH]c3ncnc(N4CCOCC4)c23)c1
- % of inhibition [11]: 4%
- % of control [12]: 100%
